According to patent publication US7202213B2 (Novo Nordisk A/S, priority 2000, dated 2007):

Tests used:
human PPAR γ = target: T1, human PPAR γ (Homo sapiens, UniProt P37231); assay: In vitro PPAR gamma transactivation assay (GAL4-DBD-PPAR-LBD luciferase reporter in HEK293 cells); assay type: cell-based; details: for EC50: HEK293 cells, 24 h with compound, five concentrations 0.01 to 30 μM, means of at least three experiments, read-out: In vitro activation PPAR γ EC50; for In vitro activation PPAR γ % max: fold activation relative to maximum activation obtained with rosiglitazone (approx. […] fold corresponded to 100%)
T1 construct: PPARα: aa 167-C-terminus; PPARγ: aa 165-C-terminus; expressed in transfected cells; host or cells: HEK293
T1 sequence (P37231 165-477 isoform P37231-2): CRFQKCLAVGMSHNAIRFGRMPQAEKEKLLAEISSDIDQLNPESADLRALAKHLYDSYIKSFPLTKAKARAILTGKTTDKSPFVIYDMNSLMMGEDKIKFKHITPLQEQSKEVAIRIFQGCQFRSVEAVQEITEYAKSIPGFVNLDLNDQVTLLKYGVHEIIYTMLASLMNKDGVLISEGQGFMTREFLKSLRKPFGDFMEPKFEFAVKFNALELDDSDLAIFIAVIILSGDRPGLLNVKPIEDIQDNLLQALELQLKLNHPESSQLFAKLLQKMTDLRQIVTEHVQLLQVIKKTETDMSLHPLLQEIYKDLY
Text: (§1) The PPAR gene transcription activation assays were based on transient transfection into human HEK293 cells of two plasmids encoding a chimeric test protein and a reporter protein respectively. The chimeric test protein was a fusion of the DNA binding domain (DBD) from the yeast GAL4 transcription factor to the ligand binding domain (LBD) of the human PPAR proteins. The PPAR LBD harbored in addition to the ligand binding pocket also the native activation domain (activating function 2=AF2) allowing the fusion protein to function as a PPAR ligand dependent transcription factor. The GAL4 DBD will force the fusion protein to bind only to Gal4 enhancers (of which none existed in HEK293 cells). The reporter plasmid contained a Gal4 enhancer driving the expression of the firefly luciferase protein. After transfection, HEK293 cells expressed the GAL4-DBD-PPAR-LBD fusion protein. The fusion protein will in turn bind to the Gal4 enhancer controlling the luciferase expression, and do nothing in the absence of ligand. Upon addition to the cells of a PPAR ligand, luciferase protein will be produced in amounts corresponding to the activation of the PPAR protein. The amount of luciferase protein is measured by light emission after addition of the appropriate substrate.
(§2) Cell culture and transfection: HEK293 cells were grown in DMEM+10% FCS. Cells were seeded in 96-well plates the day before transfection to give a confluency of 50–80% at transfection. A total of 0,8 μg DNA containing 0,64 μg pM1α/γLBD, 0,1 μg pCMVβGal, 0,08 μg pGL2Gal4DBD and 0,02 μg p[…] was transfected per well using FuGene transfection reagent according to the manufacturers instructions (Roche). Cells were allowed to express protein for 48 h followed by addition of compound.
(§3) Plasmids: Human PPAR α and γ was obtained by PCR amplification using cDNA synthesized by reverse transcription of mRNA from liver and adipose tissue respectively. Amplified cDNAs were cloned into pCR2.1 and sequenced. The ligand binding domain (LBD) of each PPAR isoform was generated by PCR(PPARα: aa 167-C-terminus; PPARγ: aa 165-C-terminus) and fused to the DNA binding domain (DBD) of the yeast transcription factor GAL4 by subcloning fragments in frame into the vector pM1 generating the plasmids pM1αLBD and pM1γLBD. Ensuing fusions were verified by sequencing.
(§4) Luciferase assay: Medium including test compound was aspirated and 100 μl PBS incl. 1 mM Mg++ and Ca++ was added to each well. The luciferase assay was performed using the LucLite kit according to the manufacturers instructions (Packard Instruments). Light emission was quantified by counting SPC mode on a Packard Instruments top-counter. To measure β-galactosidase activity 25 μl supernatant from each transfection lysate was transferred to a new microplate. β-galactosidase assays were performed in the microwell plates using a kit from Promega and read in a microplate reader. The β-galactosidase data were used to normalize (transfection efficiency, cell growth etc.) the luciferase data.
(§5) Compounds: All compounds were dissolved in DMSO and diluted 1:1000 upon addition to the cells. Compounds were tested in quadruple in five concentrations ranging form 0.01 to 30 μM. Cells were treated with compound for 24 h followed by luciferase assay. Each compound was tested in three separate experiments. EC50 values were calculated via non-linear regression using GraphPad PRISM 3.02 (GraphPad Software, San Diego, Calif.). The results were expressed as means.
(§6) Compounds were tested in at least three separate experiments in five concentrations ranging from 0.01 to 30 μM.

human PPAR α = target: T2, human PPAR α (Homo sapiens, UniProt Q07869); assay: In vitro PPAR alpha transactivation assay (GAL4-DBD-PPAR-LBD luciferase reporter in HEK293 cells); assay type: cell-based; details: for EC50: HEK293 cells, 24 h with compound, five concentrations 0.01 to 30 μM, means of at least three experiments, read-out: In vitro activation PPAR α EC50; for In vitro activation PPAR α % max: fold activation relative to maximum activation obtained with Wy14643 (approx. 20 fold corresponded to 100%)
T2 construct: PPARα: aa 167-C-terminus; PPARγ: aa 165-C-terminus; expressed in transfected cells; host or cells: HEK293
T2 sequence (Q07869 167-468 limits assumed): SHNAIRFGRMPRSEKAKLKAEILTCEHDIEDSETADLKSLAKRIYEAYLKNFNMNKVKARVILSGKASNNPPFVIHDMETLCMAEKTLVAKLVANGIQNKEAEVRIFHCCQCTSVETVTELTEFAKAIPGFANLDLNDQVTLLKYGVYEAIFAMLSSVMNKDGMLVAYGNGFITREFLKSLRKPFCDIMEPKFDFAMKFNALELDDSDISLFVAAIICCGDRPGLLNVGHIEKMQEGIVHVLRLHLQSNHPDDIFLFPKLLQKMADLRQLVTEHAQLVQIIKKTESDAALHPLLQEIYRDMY
Text: as §1, §2, §3, §4, §5, §6

Question: `CCO[C@@H](Cc1ccc(OC/C=C(\C)C#Cc2cccc(C(F)(F)F)c2)cc1)C(=O)O` [Example 12, (E)-(S)-2-ethoxy-3-[4-(3-methyl-5-(3-trifluoromethyl-phenyl)-pent-2-en-4-ynyloxy)-phenyl]-propionic acid] was tested. Which EC50 (human PPAR γ) did it give?
Answer: 0.34 µM

Question: And the “In vitro activation PPAR γ % max” value (human PPAR γ)?
Answer: 105%

Question: And the EC50 (human PPAR α)?
Answer: 0.05 µM

Question: And the “In vitro activation PPAR α % max” value (human PPAR α)?
Answer: 195%

Question: Which results are given for `CCO[C@@H](Cc1ccc(OC/C=C(\C)C#Cc2cc(Cl)cc(Cl)c2)cc1)C(=O)O` [Example 8, (E)-(S)-2-ethoxy-3-[4-(3-methyl-5-(3,5-dichloro-phenyl)-pent-2-en-4-ynyloxy)-phenyl]-propionic acid]?
Answer: EC50 (human PPAR γ): 0.31 µM; In vitro activation PPAR γ % max (human PPAR γ): 126%; EC50 (human PPAR α): 0.06 µM; In vitro activation PPAR α % max (human PPAR α): 139%

Question: For `CCOC(Cc1ccc(OCC=C(C)C#Cc2cccc3ccccc23)cc1)C(=O)O` (stereo in doubt) [Example 18, (Z)-(S)-2-ethoxy-3-[4-(3-methyl-5-(1-naphthyl)-pent-2-en-4-ynyloxy)-phenyl]-propionic acid], which EC50 (human PPAR γ) is on record?
Answer: 2.67 µM

Question: What about the “In vitro activation PPAR γ % max” value (human PPAR γ) of the same compound?
Answer: 91%

Question: What about the EC50 (human PPAR α) of the same compound?
Answer: 0.16 µM

Question: And the “In vitro activation PPAR α % max” value (human PPAR α)?
Answer: 181%

Question: With `Cc1cccc(Nc2cc(Cl)nc(SCC(=O)O)n2)c1C` [Wy14643, reference compound] as the compound, how does the “Maximum activation PPAR α (fold activation)” value (human PPAR α; reference maximum, corresponded to 100%) read?
Answer: approx. 20 fold

Question: `CCO[C@@H](Cc1ccc(OC/C=C/C#Cc2cc(Cl)cc(Cl)c2)cc1)C(=O)O` [Example 20, (E)-(S)-2-Ethoxy-3-[4-(5-(3,5-dichloro-phenyl)-pent-2-en-4-ynyloxy)-phenyl]-propionic acid] was tested. Which EC50 (human PPAR γ) did it give?
Answer: 1.42 µM

Question: What about the “In vitro activation PPAR γ % max” value (human PPAR γ) of the same compound?
Answer: 112%

Question: What about the EC50 (human PPAR α) of the same compound?
Answer: 0.04 µM

Question: What about the “In vitro activation PPAR α % max” value (human PPAR α) of the same compound?
Answer: 154%
